Test results as given in US20220372014A1, “NEUROPROTECTIVE COMPOUNDS AND METHODS OF USE THEREOF” (The Johns Hopkins University, priority 2019, published 2022).

Assays:
[1] = molecular target: T1, MIF (Homo sapiens, UniProt P14174); experiment: Nuclease assay of Example 3 (MIF inhibitory activity, Table 4); format: biochemical; parameters: (%) inhibition of MIF nuclease activity: concentration or dose not given beside the values; settings: nuclease assay of Example 3
T1 sequence (P14174 1-115): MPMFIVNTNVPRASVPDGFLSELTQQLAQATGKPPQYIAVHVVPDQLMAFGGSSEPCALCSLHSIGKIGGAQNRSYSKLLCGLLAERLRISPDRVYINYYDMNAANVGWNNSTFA
Description: A rapafucin library was synthesized as described in WO2017/136708 and Guo et al. (2018) Nat. Chem. 11:254-63. The hybrid macrocyclic library consisted of 45,000 compounds in pools of 15 individual compounds. The library compounds were screened for MIF inhibitory activity using a nuclease assay as detailed in FIG. 1 and below.
Nuclease assay: Human genomic DNA (200 ng/reaction, Promega), pcDNA (200 ng/reaction) or PS^30 and its related and non-related substrates (1 μM) was incubated with wild type MIF or its variants at a final concentration of 0.25-8 μM as indicated in 10 mM Tris-HCl buffer (pH 7.0) containing 10 mM MgCl2 and 1 mM DTT or specific buffer as indicated, for 1 h (with pcDNA and small DNA substrates) or 4 h (with human genomic DNA) at 37° C. The reaction was terminated with loading buffer containing 10 mM EDTA and incubation on ice. The human genomic DNA samples were immediately separated on a 1.2% pulse field certified agarose in 0.5×TBE buffer with initial switch time of 1.5 s and a final switch time of 3.5 s for 12 h at 6 V/cm. pcDNA samples were determined by 1% agarose gel. Small DNA substrates were separated on 15% or 25% TBE-urea polyacrylamide (PAGE) gel or 20% TBE PAGE gel. Then gel was stained with 0.5 μg/ml Ethidium Bromide (EtBr) followed by electrophoretic transfer to nylon membrane. Then, Biotin-labeled DNA is further detected by chemiluminescence using Chemiluminescent Nucleic Acid Detection Module (Thermo Scientific).
Structure-activity relationship (SAR) analysis was then conducted on the compounds identified as having MIF inhibitory activity. Compounds having the structure of Formula (I) were then synthesized as shown in Example 1 and tested for MIF inhibitory activity using the nuclease assay described herein and neuronal protection via a cell death assay as detailed below.

[2] = test system: HeLa cells or neuronal cells; experiment: Cell death assay of Example 3 (MNNG, alamarBlue; protection against parthanatos, Table 4); format: cell-based; settings: 1 μM test compound, MNNG-induced cell death, alamarBlue
Description: Cell death assay: 200 μl of cells (HeLa cells or neuronal cells) culture (1×10^4 cells/well) were plated into the wells of a sterile 96-well cell culture plate. The cells were incubated for 18 hours at 37° C. The medium was removed and changed with 100 μl/well of 1 μM test compound. Incubate for 1 hours at 37° C. Ten μl of 500 μM MNNG (N-Methyl-N′-nitro-N-nitrosoguanidine) was added to each well. The medium was aspirated well and incubated for 15 min at 37° C. The cells were washed with the fresh medium. The medium was changed with 1 μM of test compound and incubated for 18 hours at 37° C. 10 μl/well of alamarBlue reagent was added directly to the well and incubated for 1 to 4 hours at 37° C. Fluorescence was measured using a fluorescence excitation wavelength of 560 nm and emission at 590 nm. The percentage of cell death was determined as the ratio of live to dead cells compared with the percentage of cell death in control wells to account for cell death attributed to mechanical stimulation of the cultures.

(%) inhibition of MIF nuclease activity [1] [%] | Compound | (%) inhibition of cell death [2] [%]
15.4 | COc1ccc(CC[C@H]2OC(=O)[C@@H]3CCCCN3C(=O)C(=O)C(C)(C)COC(=O)C=CCCN(C)C(=O)[C@H](c3ccccc3)NC(=O)[C@H](COC(C)(C)C)N(C)C(=O)C(c3ccccc3)NC(=O)CN(C)C(=O)COc3cccc2c3)cc1OC (stereo partly shown) [compound 45] | 51.9
32.7 | COc1ccc(CC[C@H]2OC(=O)[C@@H]3CCCCN3C(=O)C(=O)C(C)(C)COC(=O)C=CCCN(C)C(=O)[C@@H]3CCCN3C(=O)[C@H](COCc3ccccc3)N(C)C(=O)C(c3ccccc3)NC(=O)[C@H](C)N(C)C(=O)COc3cccc2c3)cc1OC (stereo partly shown) [compound 96] | 69.1
18.6 | COc1ccc(CC[C@H]2OC(=O)[C@@H]3CCCCN3C(=O)C(=O)C(C)(C)COC(=O)C=CCCN(C)C(=O)C(c3ccccc3)NC(=O)[C@H](COC(C)(C)C)N(C)C(=O)[C@H](Cc3ccc4ccccc4c3)NC(=O)[C@H](C)N(C)C(=O)COc3cccc2c3)cc1OC (stereo partly shown) [compound 30] | 51.5
18.5 | COc1ccc(CC[C@H]2OC(=O)[C@@H]3CCCCN3C(=O)C(=O)C(C)(C)COC(=O)C=CCCN(C)C(=O)[C@H](CC(C)C)NC(=O)[C@H](COC(C)(C)C)N(C)C(=O)C(c3ccccc3)NC(=O)CN(C)C(=O)COc3cccc2c3)cc1OC (stereo partly shown) [compound 36] | 51.0
45.7 | COc1ccc(CC[C@H]2OC(=O)[C@@H]3CCCCN3C(=O)C(=O)C(C)(C)COC(=O)C=CCCN(C)C(=O)[C@H](Cc3ccccc3)NC(=O)[C@H](COC(C)(C)C)N(C)C(=O)[C@H](Cc3ccc4ccccc4c3)NC(=O)[C@H](C)N(C)C(=O)COc3cccc2c3)cc1OC [compound 23] | 58.7
13.2 | COc1ccc(CC[C@H]2OC(=O)[C@@H]3CCCCN3C(=O)C(=O)C(C)(C)COC(=O)C=CCCN(C)C(=O)[C@@H]3CCCN3C(=O)[C@H](COC(C)(C)C)N(C)C(=O)[C@H](Cc3ccncc3)NC(=O)[C@H](C)N(C)C(=O)COc3cccc2c3)cc1OC [compound 104] | 20.4
14.1 | COc1ccc(CC[C@H]2OC(=O)[C@@H]3CCCCN3C(=O)C(=O)C(C)(C)COC(=O)C=CCCN(C)C(=O)[C@H](Cc3ccccc3)NC(=O)[C@H](COC(C)(C)C)N(C)C(=O)C(c3ccccc3)NC(=O)[C@H](C)N(C)C(=O)COc3cccc2c3)cc1OC (stereo partly shown) [compound 53] | 58.3
10.7 | COc1cccc(CC[C@H]2OC(=O)[C@@H]3CCCCN3C(=O)C(=O)C(C)(C)COC(=O)C=CCCN(C)C(=O)[C@@H]3CCCN3C(=O)[C@H](COC(C)(C)C)N(C)C(=O)C(c3ccccc3)NC(=O)[C@H](C)N(C)C(=O)COc3cccc2c3)c1 (stereo partly shown) [compound 150] | 50.8
19.2 | COc1ccc(CC[C@H]2OC(=O)[C@@H]3CCCCN3C(=O)C(=O)C(C)(C)COC(=O)C=CCCN(C)C(=O)CNC(=O)[C@H](Cc3ccccc3)N(C)C(=O)[C@@H](C)NC(=O)CN(C)C(=O)COc3cccc2c3)cc1OC [compound 61] | 53.8
21.0 | COc1ccc(CC[C@H]2OC(=O)[C@@H]3CCCCN3C(=O)C(=O)C(C)(C)COC(=O)C=CCCN(C)C(=O)[C@@H](C)NC(=O)[C@H](COC(C)(C)C)N(C)C(=O)[C@@H](CC(C)C)NC(=O)CN(C)C(=O)COc3cccc2c3)cc1OC [compound 3] | 40.6

The next lines start with the compound.

Compound | (%) inhibition of MIF nuclease activity [1] [%] | (%) inhibition of cell death [2] [%]
COc1ccc(CC[C@H]2OC(=O)[C@@H]3CCCCN3C(=O)C(=O)C(C)(C)COC(=O)C=CCCN(C)C(=O)[C@H](CC(C)C)NC(=O)[C@H](C(C)C)N(C)C(=O)[C@@H](Cc3ccccc3)NC(=O)[C@H](CC(C)C)N(C)C(=O)CCC(=O)Nc3cccc2c3)cc1OC [compound 81] | 12.3 | 49.8
COc1cc(OC)c(OC)cc1CC[C@H]1OC(=O)[C@@H]2CCCCN2C(=O)C(=O)C(C)(C)COC(=O)C=CCCN(C)C(=O)[C@@H]2CCCN2C(=O)[C@H](COC(C)(C)C)N(C)C(=O)C(c2ccccc2)NC(=O)[C@H](C)N(C)C(=O)COc2cccc1c2 (stereo partly shown) [compound 122] | 10.7 | 64.3
COc1ccc(CC[C@H]2OC(=O)[C@@H]3CCCCN3C(=O)C(=O)C(C)(C)COC(=O)C=CCCN(C)C(=O)[C@@H](C)NC(=O)[C@H](C(C)C)N(C)C(=O)[C@@H](Cc3ccccc3)NC(=O)[C@H](CC(C)C)N(C)C(=O)CCC(=O)Nc3cccc2c3)cc1OC [compound 78] | 9.0 | 44.7
COc1ccc(CC[C@H]2OC(=O)[C@@H]3CCCCN3C(=O)C(=O)C(C)(C)COC(=O)C=CCCN(C)C(=O)[C@@H](CC(C)C)NC(=O)[C@H](C(C)C)N(C)C(=O)[C@@H](Cc3ccccc3)NC(=O)[C@H](CC(C)C)N(C)C(=O)CCC(=O)Nc3cccc2c3)cc1OC [compound 82] | 8.5 | 47.0
COc1ccc(CC[C@H]2OC(=O)[C@@H]3CCCCN3C(=O)C(=O)C(C)(C)COC(=O)C=CCCN(C)C(=O)[C@H](C(C)C)NC(=O)[C@H](C(C)C)N(C)C(=O)[C@@H](Cc3ccccc3)NC(=O)[C@H](CC(C)C)N(C)C(=O)CCC(=O)Nc3cccc2c3)cc1OC [compound 89] | 12.6 | 49.9
COc1ccc(CC[C@H]2OC(=O)[C@@H]3CCCCN3C(=O)C(=O)C(C)(C)COC(=O)C=CCCN(C)C(=O)[C@@H](C)NC(=O)[C@H](COC(C)(C)C)N(C)C(=O)C(c3ccccc3)NC(=O)CN(C)C(=O)COc3cccc2c3)cc1OC (stereo partly shown) [compound 33] | 12.6 | 53.4
COc1cc(CC[C@H]2OC(=O)[C@@H]3CCCCN3C(=O)C(=O)C(C)(C)COC(=O)C=CCCN(C)C(=O)[C@@H]3CCCN3C(=O)[C@H](COC(C)(C)C)N(C)C(=O)C(c3ccccc3)NC(=O)[C@H](C)N(C)C(=O)COc3cccc2c3)cc(OC)c1OC (stereo partly shown) [compound 115] | 8.7 | 47.9
COc1ccc(CC[C@H]2OC(=O)[C@@H]3CCCCN3C(=O)C(=O)C(C)(C)COC(=O)C=CCCN(C)C(=O)[C@H](Cc3ccccc3)NC(=O)[C@H](C(C)C)N(C)C(=O)[C@@H](Cc3ccccc3)NC(=O)[C@H](CC(C)C)N(C)C(=O)CCC(=O)Nc3cccc2c3)cc1OC [compound 83] | 12.0 | 49.8
COc1ccc(CC[C@H]2OC(=O)[C@@H]3CCCCN3C(=O)C(=O)C(C)(C)COC(=O)C=CCCN(C)C(=O)[C@H](CC3CCCCC3)NC(=O)[C@H](COC(C)(C)C)N(C)C(=O)[C@@H](CC(C)C)NC(=O)CN(C)C(=O)COc3cccc2c3)cc1OC [compound 12] | 28.9 | 52.0
COc1ccc(CC[C@H]2OC(=O)[C@@H]3CCCCN3C(=O)C(=O)C(C)(C)COC(=O)C=CCCN(C)C(=O)[C@@H]3CCCN3C(=O)[C@H](COC(C)(C)C)N(C)C(=O)C(c3ccccc3)NC(=O)[C@H](C)N(C)C(=O)COc3cc2ccc3F)cc1OC (stereo partly shown) [compound 114] | −2.4 | 44.9
